Reference: the NIST ThermoML archive (doi:10.1021/je025630q)

Test: compressibility factor (dimensionless); xn = mol fraction of the nth substance listed
Conditions: Gas, Burnett expansion method

CF [fluoromethane] + O=C=O
Conditions | compressibility factor
303.15 K, 126.9 kPa, x2 = 0.283 | 0.995
303.15 K, 139.3 kPa, x2 = 0.402 | 0.9955
303.15 K, 155.9 kPa, x2 = 0.59 | 0.9951
303.15 K, 174.7 kPa, x2 = 0.798 | 0.9946
303.15 K, 188.9 kPa, x2 = 0.283 | 0.9896
303.15 K, 207.3 kPa, x2 = 0.402 | 0.9896
303.15 K, 231.9 kPa, x2 = 0.59 | 0.9892
303.15 K, 259.9 kPa, x2 = 0.798 | 0.9886
303.15 K, 280.7 kPa, x2 = 0.283 | 0.9823
303.15 K, 308 kPa, x2 = 0.402 | 0.9821
303.15 K, 344.5 kPa, x2 = 0.59 | 0.9815
303.15 K, 386 kPa, x2 = 0.798 | 0.9807
303.15 K, 415.8 kPa, x2 = 0.283 | 0.9721
303.15 K, 456.1 kPa, x2 = 0.402 | 0.9715
303.15 K, 510 kPa, x2 = 0.59 | 0.9708
303.15 K, 571.5 kPa, x2 = 0.798 | 0.97
303.15 K, 613.1 kPa, x2 = 0.283 | 0.9576
303.15 K, 672.2 kPa, x2 = 0.402 | 0.9564
303.15 K, 751.4 kPa, x2 = 0.59 | 0.9555
303.15 K, 842 kPa, x2 = 0.798 | 0.9547
303.15 K, 897.8 kPa, x2 = 0.283 | 0.9368
303.15 K, 983.5 kPa, x2 = 0.402 | 0.9349
303.15 K, 1099.1 kPa, x2 = 0.59 | 0.9337
303.15 K, 1231.1 kPa, x2 = 0.798 | 0.9326
303.15 K, 1300.8 kPa, x2 = 0.283 | 0.9066
303.15 K, 1423.2 kPa, x2 = 0.402 | 0.9038
303.15 K, 1589.6 kPa, x2 = 0.59 | 0.9021
303.15 K, 1779.6 kPa, x2 = 0.798 | 0.9006
303.15 K, 1854.5 kPa, x2 = 0.283 | 0.8635
303.15 K, 2025.1 kPa, x2 = 0.402 | 0.8591
303.15 K, 2259.3 kPa, x2 = 0.59 | 0.8566
303.15 K, 2527 kPa, x2 = 0.798 | 0.8543
303.15 K, 2578.9 kPa, x2 = 0.283 | 0.8022
303.15 K, 2808.4 kPa, x2 = 0.402 | 0.7959
303.15 K, 3127.5 kPa, x2 = 0.59 | 0.7921
303.15 K, 3455.9 kPa, x2 = 0.283 | 0.7182
303.15 K, 3491.8 kPa, x2 = 0.798 | 0.7886
303.15 K, 3745.5 kPa, x2 = 0.402 | 0.7091
303.15 K, 4156.5 kPa, x2 = 0.59 | 0.7033
303.15 K, 4628.3 kPa, x2 = 0.798 | 0.6983
313.15 K, 128.9 kPa, x2 = 0.206 | 0.9928
313.15 K, 139.2 kPa, x2 = 0.778 | 1
313.15 K, 156.2 kPa, x2 = 0.593 | 0.9925
313.15 K, 175 kPa, x2 = 0.408 | 0.9921
313.15 K, 192.3 kPa, x2 = 0.206 | 0.9894
313.15 K, 207.3 kPa, x2 = 0.778 | 0.9946
313.15 K, 233 kPa, x2 = 0.593 | 0.989
313.15 K, 260.7 kPa, x2 = 0.408 | 0.9874
313.15 K, 286.2 kPa, x2 = 0.206 | 0.9837
313.15 K, 308.2 kPa, x2 = 0.778 | 0.9881
313.15 K, 346.7 kPa, x2 = 0.593 | 0.9829
313.15 K, 387.2 kPa, x2 = 0.408 | 0.9799
313.15 K, 424.5 kPa, x2 = 0.206 | 0.9746
313.15 K, 457.5 kPa, x2 = 0.778 | 0.9798
313.15 K, 514.3 kPa, x2 = 0.593 | 0.974
313.15 K, 573.2 kPa, x2 = 0.408 | 0.9689
313.15 K, 626.8 kPa, x2 = 0.206 | 0.9613
313.15 K, 676.8 kPa, x2 = 0.778 | 0.9683
313.15 K, 759.4 kPa, x2 = 0.593 | 0.9608
313.15 K, 843.8 kPa, x2 = 0.408 | 0.9529
313.15 K, 919.1 kPa, x2 = 0.206 | 0.9417
313.15 K, 996 kPa, x2 = 0.778 | 0.9519
313.15 K, 1113.9 kPa, x2 = 0.593 | 0.9415
313.15 K, 1231.8 kPa, x2 = 0.408 | 0.9293
313.15 K, 1334.2 kPa, x2 = 0.206 | 0.9132
313.15 K, 1453.8 kPa, x2 = 0.778 | 0.9282
313.15 K, 1617 kPa, x2 = 0.593 | 0.913
313.15 K, 1775.9 kPa, x2 = 0.408 | 0.895
313.15 K, 1907.6 kPa, x2 = 0.206 | 0.8722
313.15 K, 2096.6 kPa, x2 = 0.778 | 0.8943
313.15 K, 2311.9 kPa, x2 = 0.593 | 0.8721
313.15 K, 2512.5 kPa, x2 = 0.408 | 0.846
313.15 K, 2665.8 kPa, x2 = 0.206 | 0.8143
313.15 K, 2967.7 kPa, x2 = 0.778 | 0.8457
313.15 K, 3229.5 kPa, x2 = 0.593 | 0.8138
313.15 K, 3455.2 kPa, x2 = 0.408 | 0.7772
313.15 K, 3600.8 kPa, x2 = 0.206 | 0.7348
313.15 K, 4083.3 kPa, x2 = 0.778 | 0.7773
313.15 K, 4357.3 kPa, x2 = 0.593 | 0.7335
313.15 K, 4556.4 kPa, x2 = 0.408 | 0.6847
313.15 K, 4622.8 kPa, x2 = 0.206 | 0.6302
313.15 K, 5382.3 kPa, x2 = 0.778 | 0.6845
313.15 K, 5581 kPa, x2 = 0.593 | 0.6277
313.15 K, 5645.6 kPa, x2 = 0.408 | 0.5668
323.15 K, 133.2 kPa, x2 = 0.378 | 0.9948
323.15 K, 137 kPa, x2 = 0.791 | 0.995
323.15 K, 142.6 kPa, x2 = 0.619 | 0.9967
323.15 K, 156.6 kPa, x2 = 0.189 | 0.9918
323.15 K, 198.7 kPa, x2 = 0.378 | 0.9914
323.15 K, 204.4 kPa, x2 = 0.791 | 0.9921
323.15 K, 212.6 kPa, x2 = 0.619 | 0.9926
323.15 K, 233.4 kPa, x2 = 0.189 | 0.9875
323.15 K, 295.9 kPa, x2 = 0.378 | 0.986
323.15 K, 304.7 kPa, x2 = 0.791 | 0.9877
323.15 K, 316.4 kPa, x2 = 0.619 | 0.9871
323.15 K, 347.1 kPa, x2 = 0.189 | 0.9809
323.15 K, 439.4 kPa, x2 = 0.378 | 0.9783
323.15 K, 453 kPa, x2 = 0.791 | 0.9812
323.15 K, 469.9 kPa, x2 = 0.619 | 0.9793
323.15 K, 514.3 kPa, x2 = 0.189 | 0.971
323.15 K, 650.1 kPa, x2 = 0.378 | 0.967
323.15 K, 671.5 kPa, x2 = 0.791 | 0.9715
323.15 K, 695.4 kPa, x2 = 0.619 | 0.9682
323.15 K, 758.3 kPa, x2 = 0.189 | 0.9564
323.15 K, 956.3 kPa, x2 = 0.378 | 0.9502
323.15 K, 990.6 kPa, x2 = 0.791 | 0.9574
